# Results as given in ChEMBL document CHEMBL1201862, “PubChem BioAssay data set” (2004).
# “And” between values parts separate entries of the source, which are not always exact repeats. Identical values can stand only once.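 Growth conditions: 96-well plates. Treatment: test compound, 48 hours, 5 concentrations. Analysis: linear interpolation between bracketing concentrations; unreached endpoints set to highest concentration. GI50 marks 50% less growth.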 The source made the active and inactive calls. Rule as the data show it: active = GI50 up to about 1.1 µM and inactive = higher.
# Experiments:
# Assay in all cases: growth of human tumour cells (NCI), 48 h
# 786-0 = test system: 786-0
# A498 = test system: A498
# A549 = test system: A549
# ACHN = test system: ACHN
# BT-549 = test system: BT-549
# CAKI-1 = test system: CAKI-1
# CCRF-CEM = test system: CCRF-CEM
# COLO 205 = test system: COLO 205
# DU-145 = test system: DU-145
# EKVX = test system: EKVX
# HCC 2998 = test system: HCC 2998
# HCT-116 = test system: HCT-116
# HCT-15 = test system: HCT-15
# HL-60 = test system: HL-60
# HOP-62 = test system: HOP-62
# HOP-92 = test system: HOP-92
# HT-29 = test system: HT-29
# Hs-578T = test system: Hs-578T
# IGROV-1 = test system: IGROV-1
# K562 = test system: K562
# KM12 = test system: KM12
# LOX IMVI = test system: LOX IMVI
# M14 = test system: M14
# MCF7 = test system: MCF7
# MDA-MB-231 = test system: MDA-MB-231
# MDA-MB-435 = test system: MDA-MB-435
# MOLT-4 = test system: MOLT-4
# Malme-3M = test system: Malme-3M
# NCI-H226 = test system: NCI-H226
# NCI-H23 = test system: NCI-H23
# NCI-H460 = test system: NCI-H460
# NCI-H522 = test system: NCI-H522
# NCI/ADR-RES = test system: NCI/ADR-RES
# OVCAR-3 = test system: OVCAR-3
# OVCAR-4 = test system: OVCAR-4
# OVCAR-5 = test system: OVCAR-5
# OVCAR-8 = test system: OVCAR-8
# PC-3 = test system: PC-3
# RPMI-8226 = test system: RPMI-8226
# RXF 393 = test system: RXF 393
# SF-268 = test system: SF-268
# SF-295 = test system: SF-295
# SF-539 = test system: SF-539
# SK-MEL-28 = test system: SK-MEL-28
# SK-MEL-2 = test system: SK-MEL-2
# SK-MEL-5 = test system: SK-MEL-5
# SK-OV-3 = test system: SK-OV-3
# SN12C = test system: SN12C
# SNB-19 = test system: SNB-19
# SNB-75 = test system: SNB-75
# SR = test system: SR
# SW-620 = test system: SW-620
# T47D = test system: T47D
# TK-10 = test system: TK-10
# U-251 = test system: U-251
# UACC-257 = test system: UACC-257
# UACC-62 = test system: UACC-62
# UO-31 = test system: UO-31
# MDA-N = test system: MDA-N
structure (smiles),measurement,setting,value
CCN(CC)CCN(C)c1ccc(CO)c2c1c(=O)c1ccccc1[s+]2[O-] (centres undefined),GI50,786-0,1.71 µM (inactive)
same,GI50,A498,10.7 µM (inactive)
same,GI50,A549,11.3 µM (inactive)
same,GI50,ACHN,11.1 µM (inactive)
same,GI50,BT-549,13.8 µM (inactive)
same,GI50,CAKI-1,13.2 µM (inactive)
same,GI50,CCRF-CEM,3.78 µM (inactive)
same,GI50,COLO 205,7.06 µM (inactive)
same,GI50,DU-145,14.6 µM (inactive)
same,GI50,EKVX,5.96 µM (inactive)
same,GI50,HCC 2998,1.43 µM (inactive)
same,GI50,HCT-116,1.88 µM (inactive)
same,GI50,HCT-15,4.2 µM
same,GI50,HL-60,16.8 µM (inactive)
same,GI50,HOP-62,4.52 µM (inactive)
same,GI50,HOP-92,8.89 µM (inactive)
same,GI50,HT-29,2.11 µM (inactive)
same,GI50,Hs-578T,12 µM (inactive)
same,GI50,IGROV-1,16.9 µM (inactive)
same,GI50,K562,3.83 µM (inactive)
same,GI50,KM12,1.98 µM (inactive)
same,GI50,LOX IMVI,1.78 µM (inactive)
same,GI50,M14,2.11 µM (inactive)
same,GI50,MCF7,9.77 µM (inactive)
same,GI50,MDA-MB-231,2.84 µM (inactive)
same,GI50,MDA-MB-435,2 µM (inactive)
same,GI50,MOLT-4,2.25 µM (inactive)
same,GI50,Malme-3M,11.9 µM (inactive)
same,GI50,NCI-H226,17.7 µM (inactive)
same,GI50,NCI-H23,4.08 µM (inactive)
same,GI50,NCI-H460,4.62 µM (inactive)
same,GI50,NCI-H522,2.02 µM (inactive)
same,GI50,NCI/ADR-RES,1.74 µM (inactive)
same,GI50,OVCAR-3,1.95 µM (inactive)
same,GI50,OVCAR-4,5.6 µM (inactive)
same,GI50,OVCAR-5,11.4 µM (inactive)
same,GI50,OVCAR-8,1.8 µM (inactive)
same,GI50,PC-3,13.7 µM (inactive)
same,GI50,RPMI-8226,2.83 µM (inactive)
same,GI50,RXF 393,12 µM (inactive)
same,GI50,SF-268,16.5 µM (inactive)
same,GI50,SF-295,13.6 µM (inactive)
same,GI50,SF-539,1.82 µM (inactive)
same,GI50,SK-MEL-28,5.05 µM (inactive)
same,GI50,SK-MEL-2,19.9 µM (inactive)
same,GI50,SK-MEL-5,2.45 µM (inactive)
same,GI50,SK-OV-3,16.1 µM (inactive)
same,GI50,SN12C,15.2 µM (inactive)
same,GI50,SNB-19,13.2 µM (inactive)
same,GI50,SNB-75,14.8 µM (inactive)
same,GI50,SR,2.28 µM (inactive)
same,GI50,SW-620,1.88 µM (inactive)
same,GI50,T47D,13.4 µM (inactive)
same,GI50,TK-10,16.9 µM (inactive)
same,GI50,U-251,1.69 µM (inactive)
same,GI50,UACC-257,2 µM (inactive)
same,GI50,UACC-62,7.06 µM (inactive)
same,GI50,UO-31,16.3 µM (inactive)
COc1ccc(COC(=O)NNC(=O)C2CSC(c3ccccc3)N2C(C)=O)cc1 (centres undefined),GI50,786-0,> 100 µM (inactive)
same,GI50,A498,> 100 µM (inactive)
same,GI50,A549,> 100 µM (inactive)
same,GI50,ACHN,> 100 µM (inactive)
same,GI50,BT-549,> 100 µM (inactive)
same,GI50,CAKI-1,> 100 µM (inactive)
same,GI50,CCRF-CEM,> 100 µM (inactive)
same,GI50,DU-145,> 100 µM (inactive)
same,GI50,EKVX,> 100 µM (inactive)
same,GI50,HCC 2998,> 100 µM (inactive)
same,GI50,HCT-116,> 100 µM (inactive)
same,GI50,HCT-15,> 100 µM
same,GI50,HL-60,> 100 µM (inactive)
same,GI50,HOP-62,> 100 µM (inactive)
same,GI50,HOP-92,> 100 µM (inactive)
same,GI50,HT-29,> 100 µM (inactive)
same,GI50,Hs-578T,> 100 µM (inactive)
same,GI50,IGROV-1,> 100 µM (inactive)
same,GI50,K562,> 100 µM (inactive)
same,GI50,KM12,> 100 µM (inactive)
same,GI50,LOX IMVI,> 100 µM (inactive)
same,GI50,M14,> 100 µM (inactive)
same,GI50,MCF7,> 100 µM (inactive)
same,GI50,MDA-MB-435,> 100 µM (inactive)
same,GI50,MDA-N,> 100 µM (inactive)
same,GI50,MOLT-4,> 100 µM (inactive)
same,GI50,Malme-3M,> 100 µM (inactive)
same,GI50,NCI-H226,> 100 µM (inactive)
same,GI50,NCI-H23,> 100 µM (inactive)
same,GI50,NCI-H460,> 100 µM (inactive)
same,GI50,NCI-H522,> 100 µM (inactive)
same,GI50,NCI/ADR-RES,> 100 µM (inactive)
same,GI50,OVCAR-3,> 100 µM (inactive)
same,GI50,OVCAR-4,> 100 µM (inactive)
same,GI50,OVCAR-5,> 100 µM (inactive)
same,GI50,OVCAR-8,> 100 µM (inactive)
same,GI50,PC-3,> 100 µM (inactive)
same,GI50,RPMI-8226,> 100 µM (inactive)
same,GI50,SF-268,> 100 µM (inactive)
same,GI50,SF-295,> 100 µM (inactive)
same,GI50,SF-539,> 100 µM (inactive)
same,GI50,SK-MEL-2,> 100 µM (inactive)
same,GI50,SK-MEL-5,> 100 µM (inactive)
same,GI50,SK-OV-3,> 100 µM (inactive)
same,GI50,SN12C,> 100 µM (inactive)
same,GI50,SNB-19,> 100 µM (inactive)
same,GI50,SNB-75,> 100 µM (inactive)
same,GI50,SW-620,> 100 µM (inactive)
same,GI50,TK-10,> 100 µM (inactive)
same,GI50,U-251,> 100 µM (inactive)
same,GI50,UACC-257,> 100 µM (inactive)
same,GI50,UACC-62,> 100 µM (inactive)
same,GI50,UO-31,> 100 µM (inactive)
O/N=C/C1C(OCc2ccccc2)C(OCc2ccccc2)C(OCc2ccccc2)CN1Cc1ccccc1 (centres undefined),GI50,786-0,8.99 µM (inactive) and 5.94 µM (inactive)
same,GI50,A498,5.2 µM (inactive)
same,GI50,A549,4.44 µM (inactive) and 7.87 µM (inactive)
same,GI50,BT-549,15.3 µM (inactive)
same,GI50,CAKI-1,2.74 µM (inactive)
same,GI50,CCRF-CEM,3.37 µM (inactive) and 3.65 µM (inactive)
same,GI50,DU-145,35.2 µM (inactive) and 60.4 µM (inactive)
same,GI50,EKVX,41.2 µM (inactive)
same,GI50,HCC 2998,7.48 µM (inactive)
same,GI50,HCT-116,3.89 µM (inactive) and 4.97 µM (inactive)
same,GI50,HL-60,13.1 µM (inactive)
same,GI50,IGROV-1,22.1 µM (inactive) and 34 µM (inactive)
same,GI50,K562,3.82 µM (inactive) and 4.53 µM (inactive)
same,GI50,LOX IMVI,10.6 µM (inactive) and 6 µM (inactive)
same,GI50,MDA-MB-231,4.15 µM (inactive)
same,GI50,MDA-N,16 µM (inactive) and 12.4 µM (inactive)
same,GI50,MOLT-4,2.77 µM (inactive) and 1.52 µM (inactive)
same,GI50,NCI-H522,9.55 µM (inactive)
same,GI50,OVCAR-4,6.41 µM (inactive)
same,GI50,OVCAR-8,16 µM (inactive) and 13.1 µM (inactive)
same,GI50,RPMI-8226,22.6 µM (inactive)
same,GI50,RXF 393,3.51 µM (inactive)
same,GI50,SF-268,16.7 µM (inactive) and > 10 µM (inactive)
same,GI50,SF-295,6.15 µM (inactive) and 10.7 µM (inactive)
same,GI50,SF-539,7.26 µM (inactive)
same,GI50,SK-MEL-28,14.3 µM (inactive) and 15.2 µM (inactive)
same,GI50,SK-MEL-2,19.6 µM (inactive)
same,GI50,SK-MEL-5,11.7 µM (inactive)
same,GI50,SNB-19,29.4 µM (inactive) and 38.8 µM (inactive)
same,GI50,SW-620,5.41 µM (inactive) and 10.2 µM (inactive)
same,GI50,T47D,5.26 µM (inactive)
same,GI50,U-251,9.16 µM (inactive) and 15.5 µM (inactive)
same,GI50,UACC-62,13.9 µM (inactive) and 18.7 µM (inactive)
